The text below walks through data of US12398154B2, “Azaquinazoline pan-KRas inhibitors” (Mirati Therapeutics, Inc., priority 2020, dated 2025).

For one test, the system named is pERK in PSN1 cells. The test can be described thus: Inhibition of KRas phosphorylation of ERK (Cisbio HTRF pERK assay). The conditions noted are these: Homo sapiens, PSN1, 3 h, read-out: Inhibition (HTRF IC50) of KRas-mediated Phosphorylation of ERK, PSN1. (In general: In TR-FRET formats the signal depends on donor and acceptor labels being close together.)
Another test deals with T1, KRas G13D (Homo sapiens, UniProt P01116, G13D).
T1 construct: Biotinylated KRas (corresponding to amino acids 1-169, produced at Accelegan Inc.); biotin (biotinylated); purchased Accelegan Inc
T1 sequence (P01116 1-169 isoform P01116-2 G13D): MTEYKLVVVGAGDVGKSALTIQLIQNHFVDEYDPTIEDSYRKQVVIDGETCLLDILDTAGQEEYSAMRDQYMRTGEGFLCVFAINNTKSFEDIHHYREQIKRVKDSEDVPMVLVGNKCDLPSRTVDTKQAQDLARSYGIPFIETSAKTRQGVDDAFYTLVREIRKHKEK
The test can be described thus: KRas binding assay (TR-FRET displacement).

Another test addresses KRas G12D (Homo sapiens, UniProt P01116, G12D). Kind of test: biochemical.
For another test, the system named is pERK in H460 cells. Kind of test: Inhibition of KRas phosphorylation of ERK (Cisbio HTRF pERK assay). To be noted: Homo sapiens, NCI-H460, read-out: Inhibition (HTRF IC50) of KRas-mediated Phosphorylation of ERK, H460.
A further test has as its target KRas G12A (Homo sapiens, UniProt P01116, G12A). Kind of test: biochemical.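 Note: binding to KRas measured by TR-FRET displacement after one hour at room temperature, IC50 from a four-parameter fit of percent-of-control values.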
Another test concerns the target T2, KRas Q61H (Homo sapiens, UniProt P01116, Q61H).
T2 construct: Biotinylated KRas (corresponding to amino acids 1-169, produced at Accelegan Inc.); biotin (biotinylated); purchased Accelegan Inc
The test can be described thus: KRas binding assay (TR-FRET displacement).

A further test addresses KRas G12C (Homo sapiens, UniProt P01116, G12C). The test can be described thus: biochemical.
Another test deals with KRas G12R (Homo sapiens, UniProt P01116, G12R). The test can be described thus: biochemical.
Chain of KRas G12R (P01116 1-169 isoform P01116-2 G12R): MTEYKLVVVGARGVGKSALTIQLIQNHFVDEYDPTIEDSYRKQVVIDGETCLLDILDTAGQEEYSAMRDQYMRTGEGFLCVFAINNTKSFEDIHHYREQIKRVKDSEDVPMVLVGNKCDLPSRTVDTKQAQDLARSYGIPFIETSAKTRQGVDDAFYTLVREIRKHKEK
A further test concerns pERK in A549 cells. The test can be described thus: Inhibition of KRas phosphorylation of ERK (Cisbio HTRF pERK assay). The conditions noted are these: Homo sapiens, A549, read-out: Inhibition (HTRF IC50) of KRas-mediated Phosphorylation of ERK, A549.
The test system of a further test is pERK in H727 cells. Described as above. The conditions noted are these: Homo sapiens, NCI-H727, read-out: Inhibition (HTRF IC50) of KRas-mediated Phosphorylation of ERK, H727.
In another test the target is KRas G12S (Homo sapiens, UniProt P01116, G12S). The test can be described thus: biochemical.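 Note: TR-FRET displacement binding to KRas, read after one hour incubation at room temperature, IC50 from four-parameter fit of percent of control.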
Chain of KRas G12S (P01116 1-169 isoform P01116-2 G12S): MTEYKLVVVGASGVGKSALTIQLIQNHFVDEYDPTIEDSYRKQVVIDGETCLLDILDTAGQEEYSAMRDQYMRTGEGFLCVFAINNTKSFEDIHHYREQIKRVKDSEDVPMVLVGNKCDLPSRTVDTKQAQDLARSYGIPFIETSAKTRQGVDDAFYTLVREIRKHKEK
A further test has as its system pERK in MKN1 cells. The test can be described thus: Inhibition of KRas phosphorylation of ERK (Cisbio HTRF pERK assay). The conditions noted are these: Homo sapiens, MKN-1, 3 h, read-out: Inhibition (HTRF IC50) of KRas-mediated Phosphorylation of ERK, MKN1.
The test system of test [1] is phospho-ERK in NCI-H727 (G12V) cells. Kind of test: Inhibition of KRas-mediated phosphorylation of ERK (in-cell western). The format is cell-based. The conditions noted are these: Homo sapiens, NCI-H727, 3 h, 3 hours compound, phospho-ERK normalized to GAPDH. The method, boiled down: (§1)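 Cells were treated with compound for 3 hours (0.5% DMSO final), then fixed with formaldehyde and permeabilized with ice-cold methanol. Phospho-ERK (Thr202/Tyr204) was detected by antibody and normalized to GAPDH per well, expressed as percent of DMSO control, and IC50 obtained by 4-parameter fit.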

In test [2] the test system is phospho-ERK in PSN-1 (G12R) cells. Described as above. It counts as cell-based. To be noted: Homo sapiens, PSN1, 3 hours compound, phospho-ERK normalized to GAPDH. The method, boiled down:
as §1

Test [3] deals with phospho-ERK in NCI-H460 (Q61H) cells. Described as above. The format is cell-based. The conditions noted are these: Homo sapiens, NCI-H460, 3 h, 3 hours compound, phospho-ERK normalized to GAPDH. In outline:
as §1

In test [4] the test system is phospho-ERK in A549 (G12S) cells. The test is described as above. The format is cell-based. To be noted: Homo sapiens, 3 hours compound, phospho-ERK normalized to GAPDH. The method, boiled down: as §1
In test [5] the test system is phospho-ERK in AsPC-1 (G12D) cells. The description is as above. The format is cell-based. To be noted: Homo sapiens, ASPC1, 3 h, 3 hours compound, phospho-ERK normalized to GAPDH. The method, boiled down: as §1
The test system of test [6] is phospho-ERK in HCT116 (G13D) cells. The description is as above. It counts as cell-based. To be noted: Homo sapiens, HCT-116, 3 hours compound, phospho-ERK normalized to GAPDH. In outline: as §1
Test [7] has as its system phospho-ERK in MKN1 (WTdep) cells. The test is described as above. The format is cell-based. To be noted: Homo sapiens, MKN-1, 3 hours compound, phospho-ERK normalized to GAPDH. The method, boiled down: as §1
Test [8] has as its system phospho-ERK in NCI-H358 (G12C) cells. Described as above. The format is cell-based. To be noted: Homo sapiens, 3 hours compound, phospho-ERK normalized to GAPDH. In outline:
as §1

Another test relates to pERK in ASPC1 cells. Kind of test: Inhibition of KRas phosphorylation of ERK (Cisbio HTRF pERK assay). The conditions noted are these: Homo sapiens, ASPC1, read-out: Inhibition (HTRF IC50) of KRas-mediated Phosphorylation of ERK, AsPC-1.
A further test has as its target KRas G12V (Homo sapiens, UniProt P01116, G12V). The test can be described thus: biochemical.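 Note: KRas binding measured by TR-FRET displacement at room temperature, IC50 fitted from percent of control values.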
Another test has as its system pERK in HCT116 cells. The test can be described thus: Inhibition of KRas phosphorylation of ERK (Cisbio HTRF pERK assay). The conditions noted are these: Homo sapiens, HCT-116, read-out: Inhibition (HTRF IC50) of KRas-mediated Phosphorylation of ERK, HCT116.
The target of another test is KRas WT (Homo sapiens, UniProt P01116). The test can be described thus: biochemical.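 Note: binding to KRas read as TR-FRET displacement after a one-hour room-temperature incubation, IC50 derived from percent-of-control values.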
Chain of KRas WT (P01116 1-169 isoform P01116-2): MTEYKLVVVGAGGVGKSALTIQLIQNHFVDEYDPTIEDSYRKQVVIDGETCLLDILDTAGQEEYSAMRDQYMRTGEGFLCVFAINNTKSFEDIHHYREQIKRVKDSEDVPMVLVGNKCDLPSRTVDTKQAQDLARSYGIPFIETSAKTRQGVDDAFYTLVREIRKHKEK
The next test deals with pERK in H358 cells. The test can be described thus: Inhibition of KRas phosphorylation of ERK (Cisbio HTRF pERK assay). The conditions noted are these: Homo sapiens, NCI-H358, read-out: Inhibition (HTRF IC50) of KRas-mediated Phosphorylation of ERK, H358.

pIC50: −log10 of the molar value. Some results are limits rather than exact numbers.

For orientation: pIC50 means the negative decadic logarithm of the IC50, by convention in mol/L. A word on the IC50: it is the concentration that gives 50% inhibition. A high value points to lower potency.

T2 sequence (P01116 1-169 isoform P01116-2 Q61H): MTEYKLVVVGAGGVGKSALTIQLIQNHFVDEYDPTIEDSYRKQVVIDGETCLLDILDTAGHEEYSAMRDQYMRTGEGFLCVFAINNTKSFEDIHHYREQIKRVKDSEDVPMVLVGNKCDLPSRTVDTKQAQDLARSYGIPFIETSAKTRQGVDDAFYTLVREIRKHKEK
Chain of KRas G12D (P01116 1-169 isoform P01116-2 G12D): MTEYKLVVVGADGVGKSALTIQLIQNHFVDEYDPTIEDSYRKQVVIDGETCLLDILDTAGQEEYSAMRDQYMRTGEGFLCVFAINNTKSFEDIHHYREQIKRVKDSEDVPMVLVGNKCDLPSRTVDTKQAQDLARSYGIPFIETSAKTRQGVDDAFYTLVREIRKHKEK
Chain of KRas G12V (P01116 1-169 isoform P01116-2 G12V): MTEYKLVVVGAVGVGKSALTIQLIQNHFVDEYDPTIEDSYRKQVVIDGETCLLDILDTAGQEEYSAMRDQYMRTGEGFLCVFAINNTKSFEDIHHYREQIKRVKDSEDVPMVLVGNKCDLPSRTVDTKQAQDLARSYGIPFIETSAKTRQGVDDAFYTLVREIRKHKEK
Chain of KRas G12C (P01116 1-169 isoform P01116-2 G12C): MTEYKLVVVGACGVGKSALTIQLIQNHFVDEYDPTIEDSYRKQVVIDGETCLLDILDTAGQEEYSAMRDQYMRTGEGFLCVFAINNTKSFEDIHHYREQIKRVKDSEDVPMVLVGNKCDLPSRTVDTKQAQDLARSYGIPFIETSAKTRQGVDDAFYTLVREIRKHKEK
Chain of KRas G12A (P01116 1-169 isoform P01116-2 G12A): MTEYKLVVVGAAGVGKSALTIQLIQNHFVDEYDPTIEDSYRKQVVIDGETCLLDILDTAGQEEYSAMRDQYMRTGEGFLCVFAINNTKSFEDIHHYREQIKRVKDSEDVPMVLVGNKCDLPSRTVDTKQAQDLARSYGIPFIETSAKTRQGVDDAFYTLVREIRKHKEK

For the compound `C#Cc1c(F)ccc2cc(O)cc(-c3ncc4c(N5CCC[C@@](C)(O)C5)nc(OC[C@@]56CCCN5C[C@H](F)C6)nc4c3F)c12` [Example 13], the pIC50 in the test with pERK in PSN1 cells was 5.96; against KRas G12D, at least 8.70; in the test with pERK in H460 cells, 7.57; on KRas G12A it was at least 8.70; at KRas G12C, at least 8.70; against KRas G12R it was at least 8.70. Besides, the pIC50 with pERK in A549 cells was 7.37; in the test on pERK in H727 cells it was 7.89; on KRas G12S it was at least 8.70; in the test on pERK in MKN1 cells, 8.30; in the test on pERK in ASPC1 cells, 8.40; at KRas G12V it was at least 8.70. Moreover, the negative logarithm of the IC50 (pIC50) is 7.48 in the test on pERK in HCT116 cells and at least 8.70 on KRas WT. The IC50 is at most 2 nM at KRas G13D; at most 2 nM on KRas Q61H; 44 nM in [1]; 773 nM in test [2]; 13 nM in [3]; 140 nM in test [4]. In addition, the IC50 in test [5] was 18 nM; in test [6] it was 42 nM; in [7] it was 10 nM; in test [8], 11 nM.
For the compound `CCc1c(F)ccc2cc(O)cc(-c3ncc4c(N5CCC[C@@](C)(O)C5)nc(OC[C@@H]5CCCN5C)nc4c3F)c12` [Example 28, (3R)-1-[7-(8-ethyl-7-fluoro-3-hydroxy-1-naphthyl)-8-fluoro-2-[[(2S)-1-methylpyrrolidin-2-yl]methoxy]pyrido[4,3-d]pyrimidin-4-yl]-3-methyl-piperidin-3-ol], the pIC50 with pERK in PSN1 cells is 5.14; on KRas G12D, 8.52; in the test with pERK in H460 cells, 7.00; against KRas G12A, at least 8.70; against KRas G12C it was at least 8.70; against KRas G12R, 8.52. Further, the pIC50 in the test on pERK in A549 cells is 6.81; in the test on pERK in H727 cells it was 6.80; against KRas G12S, at least 8.70; in the test on pERK in MKN1 cells, 7.68; in the test with pERK in ASPC1 cells it was 7.70; against KRas G12V, at least 8.70. The pIC50 with pERK in HCT116 cells is 6.81; against KRas WT, 8.52. In addition, the IC50 on KRas G13D was 3 nM; at KRas Q61H, 3 nM; in [1], 308 nM; in test [2], at least 10000 nM; in [3], 54 nM; in [4], 523 nM. In addition, the IC50 is 78 nM in test [5], 153 nM in test [6], 24 nM in [7] and 60 nM in test [8].
On to `CCc1c(F)ccc2cc(O)cc(-c3ncc4c(N5CCCC6(CC(=O)N6)C5)nc(OC[C@@]56CCCN5C[C@H](F)C6)nc4c3F)c12` (stereo partly drawn) [Example 57], for which the IC50 on KRas G13D is 3 nM; on KRas Q61H, at most 2 nM; in [1] it was 115 nM; in test [2] it was 4140 nM; in test [3], 119 nM; in test [4], 668 nM. Besides, the IC50 in test [5] turned out to be 82 nM; in [6] it was 1080 nM; in [7], 22 nM; in [8] it was 50 nM. The pIC50 against KRas G12D is at least 8.70; in the test on pERK in H460 cells, 6.92; against KRas G12R it was at least 8.70; with pERK in A549 cells, 6.76; with pERK in H727 cells, 7.26; in the test on pERK in ASPC1 cells, 7.49. Besides, the negative-log IC50 (pIC50) is at least 8.70 against KRas G12V and 5.70 in the test with pERK in HCT116 cells.
As for `CCc1c(F)ccc2cc(O)cc(-c3ncc4c(N5CCOCC(C)(O)C5)nc(OC[C@@]56CCCN5C[C@H](F)C6)nc4c3F)c12` (stereo partly drawn) [Example 63], the pIC50 with pERK in H460 cells is 7.68; in the test with pERK in A549 cells, 7.72; with pERK in H727 cells, 7.55; in the test with pERK in ASPC1 cells, 8.40; in the test on pERK in HCT116 cells it was 7.20. The IC50 is 56 nM in [1]; 1040 nM in test [2]; 38 nM in test [3]; 139 nM in [4]; 15 nM in test [5]; 44 nM in test [6]. Further, the figures for the IC50 in test [7] and in [8] were 5 nM and 27 nM, respectively.
As to `CCc1c(F)ccc2cc(O)cc(-c3ncc4c(N5CC6CC(O)C(C6)C5)nc(OC[C@@]56CCCN5C[C@H](F)C6)nc4c3F)c12` (stereo partly drawn) [Example 82], the pIC50 was 5.63 with pERK in PSN1 cells; at least 8.70 on KRas G12D; 7.66 with pERK in H460 cells; 8.00 in the test on pERK in H358 cells; at least 8.70 on KRas G12R; 7.82 in the test with pERK in A549 cells. Further, the pIC50 in the test on pERK in H727 cells is 7.80; with pERK in MKN1 cells it was 8.22; in the test on pERK in ASPC1 cells, 7.82; against KRas G12V it was at least 8.70; in the test with pERK in HCT116 cells it was 6.97. Besides, the IC50 worked out at 65 nM in test [1]; 1740 nM in [2]; 180 nM in test [3]; 25 nM in test [4]; 18 nM in test [5]; 216 nM in test [6]. Also, the half-maximal inhibitory concentration (IC50) in test [7] is 10 nM; in [8], 3 nM.
As to `C#Cc1c(F)ccc2cc(O)cc(-c3ncc4c(N5CCOCC(C)(O)C5)nc(OC[C@@]56CCCN5C[C@H](F)C6)nc4c3F)c12` (stereo partly drawn) [Example 149], the pIC50 is 8.40 on KRas G12D; 6.74 in the test on pERK in H460 cells; 8.52 on KRas G12R; 6.54 with pERK in A549 cells; 6.95 with pERK in H727 cells; 7.60 in the test on pERK in ASPC1 cells. Also, the pIC50 at KRas G12V was at least 8.70; with pERK in HCT116 cells, 6.56. In addition, the IC50 in test [1] was determined as 206 nM; in test [2], 1760 nM; in [3], 71 nM; in test [4] it was 83 nM; in test [5] it was 9 nM; in test [6], 292 nM. In addition, the IC50 was found to be 16 nM in [7] and 10 nM in test [8].
